From patent US20150374673A1, “Combination Therapy for the Treatment of Nosocomial Pneumonia” (priority 2013, published 2015)
Where two headings read alike, the source gives them in different places.

Key:
[1] = Protein binding, equilibrium dialysis chamber, LC-MS/MS; type: in vitro ADME
Experimental: Blood was separated from plasma using a cooled centrifuge. Samples were split and stored at −80° C.

[2] = tested on: Gram-positive or Gram-negative bacterial strains; assay: MIC in pulmonary surfactant compared with CAMHB alone, whole strain panel; type: cell-based; settings: up to 10% pulmonary surfactant vs CAMHB alone; any strain tested
Experimental: (§1) The bacterial strains used in this testing were part of the microbiological culture collection housed at AstraZeneca R&D Boston (AstraZeneca Research Collection, designated ARC). The panel of bacterial isolates used for this testing was comprised of five CLSI QC reference strains and the remainder were either recent clinical isolates expressing β-lactamases or isolates from the primary bacterial screening panels.
(§2) MIC values were determined using the CLSI broth microdilution methodology with slight variation. Stock compound mother plates were prepared and used to spot 2 μL aliquots of serial 2-fold drug dilutions to columns 1-11 of 96-well daughter plates using a Perkin-Elmer MiniTrak™ MultiPosition dispenser. […] An inoculum volume of 100 μL (5×10E^5 CFU/mL) in CAMHB containing 0, 1, 2.5, 5, or 10% pulmonary surfactant was added using a multichannel Finnpipette® to each well of the 96-well plate.
The minimum inhibitory concentration (MIC) values against each organism/drug combination were determined using broth microdilution methodology according to CLSI guidelines. The recommended reference bacterial strains for each test group and reference compounds were incorporated into each test. […]
MIC values for individual isolates were read visually. […]

K. pneumoniae = assay: MIC, CLSI broth microdilution in CAMHB with 0-10% pulmonary surfactant (avibactam fixed at 4 μg/mL in combination); type: cell-based; settings: Klebsiella pneumoniae
Experimental: as §1, §2
(§3) The minimum inhibitory concentration (MIC) values against each organism/drug combination were determined using broth microdilution methodology according to CLSI guidelines. The recommended reference bacterial strains for each test group and reference compounds were incorporated into each test. For Gram-negatives, the reference bacterial strains were Escherichia coli ATCC 25922, E. coli ATCC 35218, Klebsiella pneumoniae ATCC 700603, and Pseudomonas aeruginosa ATCC 27853. Staphylococcus aureus ATCC 29213 was the reference bacterial strain for the Gram-positives.
(§4) MIC values for individual isolates were read visually. The MICs for each compound or combination in pulmonary surfactant was compared to the compound or combination tested in CAMHB alone.

E. coli = assay: as above; type: cell-based; settings: Escherichia coli
Experimental: as §1, §2, §3, §4

P. aeruginosa = assay: as above; type: cell-based, Pseudomonas aeruginosa
Experimental: as §1, §2, §3, §4

What does the source list for NC(=O)[C@@H]1CC[C@@H]2CN1C(=O)N2OS(=O)(=O)[O-].[Na+] [avibactam, [(2S,5R)-2-carbamoyl-7-oxo-1,6-diazabicyclo[3.2.1]octan-6-yl]hydrogen sulfate]?
fraction unbound [1]: 0.92; MIC increase in pulmonary surfactant [2]: no MIC increases were observed; MIC (K. pneumoniae; ATCC700603, K. pneumoniae ARC561 (ATCC 700603; SHV-18, OXA-2, OKP-6), surfactant 0%): > 64 µg/mL; MIC (K. pneumoniae; ATCC700603, K. pneumoniae ARC561 (ATCC 700603; SHV-18, OXA-2, OKP-6), surfactant 1%): > 64 µg/mL; MIC (K. pneumoniae; ATCC700603, K. pneumoniae ARC561 (ATCC 700603; SHV-18, OXA-2, OKP-6), surfactant 2.5%): > 64 µg/mL; MIC (K. pneumoniae; ATCC700603, K. pneumoniae ARC561 (ATCC 700603; SHV-18, OXA-2, OKP-6), surfactant 5%): 64 µg/mL; MIC (K. pneumoniae; ATCC700603, K. pneumoniae ARC561 (ATCC 700603; SHV-18, OXA-2, OKP-6), surfactant 10%): 64 µg/mL; MIC (K. pneumoniae; K. pneumoniae ARC1865 (Primary Screening Panel), surfactant 1%): > 64 µg/mL; MIC (K. pneumoniae; K. pneumoniae ARC1865 (Primary Screening Panel), surfactant 2.5%): 64 µg/mL; MIC (K. pneumoniae; K. pneumoniae ARC1865 (Primary Screening Panel), surfactant 5%): > 64 µg/mL; MIC (K. pneumoniae; K. pneumoniae ARC1865 (Primary Screening Panel), surfactant 10%): > 64 µg/mL; MIC (K. pneumoniae; K. pneumoniae ARC1865 (Primary Screening Panel), surfactant concentration cell empty): > 64 µg/mL; MIC (K. pneumoniae; K. pneumoniae ARC2528 (Clinical isolate), surfactant 0%): 64 µg/mL; MIC (K. pneumoniae; K. pneumoniae ARC2528 (Clinical isolate), surfactant 1%): 64 µg/mL; MIC (K. pneumoniae; K. pneumoniae ARC2528 (Clinical isolate), surfactant 2.5%): 64 µg/mL; MIC (K. pneumoniae; K. pneumoniae ARC2528 (Clinical isolate), surfactant 5%): 64 µg/mL; MIC (K. pneumoniae; K. pneumoniae ARC2528 (Clinical isolate), surfactant 10%): 32 µg/mL; MIC (K. pneumoniae; K. pneumoniae ARC2929 (KPC-3), surfactant 0%): 8 µg/mL; MIC (K. pneumoniae; K. pneumoniae ARC2929 (KPC-3), surfactant 1%): 8 µg/mL; MIC (K. pneumoniae; K. pneumoniae ARC2929 (KPC-3), surfactant 2.5%): 8 µg/mL; MIC (K. pneumoniae; K. pneumoniae ARC2929 (KPC-3), surfactant 5%): 8 µg/mL; MIC (K. pneumoniae; K. pneumoniae ARC2929 (KPC-3), surfactant 10%): 8 µg/mL; MIC (K. pneumoniae; K. pneumoniae ARC2945 (KPC-2, SHV-11, TEM-1, OXA-9), surfactant 0%): 8 µg/mL; MIC (K. pneumoniae; K. pneumoniae ARC2945 (KPC-2, SHV-11, TEM-1, OXA-9), surfactant 1%): 8 µg/mL; MIC (K. pneumoniae; K. pneumoniae ARC2945 (KPC-2, SHV-11, TEM-1, OXA-9), surfactant 2.5%): 8 µg/mL; MIC (K. pneumoniae; K. pneumoniae ARC2945 (KPC-2, SHV-11, TEM-1, OXA-9), surfactant 5%): 8 µg/mL; MIC (K. pneumoniae; K. pneumoniae ARC2945 (KPC-2, SHV-11, TEM-1, OXA-9), surfactant 10%): 8 µg/mL; MIC (K. pneumoniae; K. pneumoniae ARC3713 (CTX-M-15, OXA-1/30, SHV-5, TEM-1), surfactant 0%): 16 µg/mL; MIC (K. pneumoniae; K. pneumoniae ARC3713 (CTX-M-15, OXA-1/30, SHV-5, TEM-1), surfactant 1%): 16 µg/mL; MIC (K. pneumoniae; K. pneumoniae ARC3713 (CTX-M-15, OXA-1/30, SHV-5, TEM-1), surfactant 2.5%): 16 µg/mL; MIC (K. pneumoniae; K. pneumoniae ARC3713 (CTX-M-15, OXA-1/30, SHV-5, TEM-1), surfactant 5%): 16 µg/mL; MIC (K. pneumoniae; K. pneumoniae ARC3713 (CTX-M-15, OXA-1/30, SHV-5, TEM-1), surfactant 10%): 16 µg/mL; MIC (E. coli; ATCC25922, E. coli ARC4 (CLSI QC strain, ATCC 25922), surfactant 0%): 32 µg/mL; MIC (E. coli; ATCC25922, E. coli ARC4 (CLSI QC strain, ATCC 25922), surfactant 1%): 32 µg/mL; MIC (E. coli; ATCC25922, E. coli ARC4 (CLSI QC strain, ATCC 25922), surfactant 2.5%): 32 µg/mL; MIC (E. coli; ATCC25922, E. coli ARC4 (CLSI QC strain, ATCC 25922), surfactant 5%): 16 µg/mL; MIC (E. coli; ATCC25922, E. coli ARC4 (CLSI QC strain, ATCC 25922), surfactant 10%): 16 µg/mL; MIC (E. coli; ATCC35218, E. coli ARC016 (ATCC 35218, TEM-1), surfactant 0%): 16 µg/mL; MIC (E. coli; ATCC35218, E. coli ARC016 (ATCC 35218, TEM-1), surfactant 1%): 16 µg/mL; MIC (E. coli; ATCC35218, E. coli ARC016 (ATCC 35218, TEM-1), surfactant 2.5%): 16 µg/mL; MIC (E. coli; ATCC35218, E. coli ARC016 (ATCC 35218, TEM-1), surfactant 5%): 16 µg/mL; MIC (E. coli; ATCC35218, E. coli ARC016 (ATCC 35218, TEM-1), surfactant 10%): 16 µg/mL; MIC (E. coli; E. coli ARC523 (W3110), surfactant 0%): > 64 µg/mL; MIC (E. coli; E. coli ARC523 (W3110), surfactant 1%): > 64 µg/mL; MIC (E. coli; E. coli ARC523 (W3110), surfactant 2.5%): > 64 µg/mL; MIC (E. coli; E. coli ARC523 (W3110), surfactant 5%): > 64 µg/mL; MIC (E. coli; E. coli ARC523 (W3110), surfactant 10%): > 64 µg/mL; MIC (E. coli; E. coli ARC3666 (CTX-M-15, OXA-1/30, SHV-31, TEM-1), surfactant 0%): 8 µg/mL; MIC (E. coli; E. coli ARC3666 (CTX-M-15, OXA-1/30, SHV-31, TEM-1), surfactant 1%): 8 µg/mL; MIC (E. coli; E. coli ARC3666 (CTX-M-15, OXA-1/30, SHV-31, TEM-1), surfactant 2.5%): 8 µg/mL; MIC (E. coli; E. coli ARC3666 (CTX-M-15, OXA-1/30, SHV-31, TEM-1), surfactant 5%): 8 µg/mL; MIC (E. coli; E. coli ARC3666 (CTX-M-15, OXA-1/30, SHV-31, TEM-1), surfactant 10%): 8 µg/mL; MIC (E. coli; E. coli ARC3690 (CTX-M-15, SHV-12), surfactant 0%): 16 µg/mL; MIC (E. coli; E. coli ARC3690 (CTX-M-15, SHV-12), surfactant 1%): 16 µg/mL; MIC (E. coli; E. coli ARC3690 (CTX-M-15, SHV-12), surfactant 2.5%): 16 µg/mL; MIC (E. coli; E. coli ARC3690 (CTX-M-15, SHV-12), surfactant 5%): 16 µg/mL; MIC (E. coli; E. coli ARC3690 (CTX-M-15, SHV-12), surfactant 10%): 16 µg/mL; MIC (P. aeruginosa; P. aeruginosa ARC3 (CLSI QC strain, ATCC 27853), surfactant 1%): >64 µg/mL; MIC (P. aeruginosa; P. aeruginosa ARC3 (CLSI QC strain, ATCC 27853), surfactant 2.5%): >64 µg/mL; MIC (P. aeruginosa; P. aeruginosa ARC3 (CLSI QC strain, ATCC 27853), surfactant 5%): >64 µg/mL; MIC (P. aeruginosa; P. aeruginosa ARC3 (CLSI QC strain, ATCC 27853), surfactant 10%): >64 µg/mL; MIC (P. aeruginosa; P. aeruginosa ARC545 (PAO1), surfactant 1%): >64 µg/mL; MIC (P. aeruginosa; P. aeruginosa ARC545 (PAO1), surfactant 2.5%): >64 µg/mL; MIC (P. aeruginosa; P. aeruginosa ARC545 (PAO1), surfactant 5%): >64 µg/mL; MIC (P. aeruginosa; P. aeruginosa ARC545 (PAO1), surfactant 10%): >64 µg/mL; MIC (P. aeruginosa; P. aeruginosa ARC2532 (Clinical isolate), surfactant 0%): >64 µg/mL; MIC (P. aeruginosa; P. aeruginosa ARC2532 (Clinical isolate), surfactant 1%): >64 µg/mL; MIC (P. aeruginosa; P. aeruginosa ARC2532 (Clinical isolate), surfactant 2.5%): >64 µg/mL; MIC (P. aeruginosa; P. aeruginosa ARC2532 (Clinical isolate), surfactant 5%): >64 µg/mL; MIC (P. aeruginosa; P. aeruginosa ARC2532 (Clinical isolate), surfactant 10%): >64 µg/mL; MIC (P. aeruginosa; P. aeruginosa ARC2761 (Clinical isolate), surfactant 1%): >64 µg/mL; MIC (P. aeruginosa; P. aeruginosa ARC2761 (Clinical isolate), surfactant 2.5%): >64 µg/mL; MIC (P. aeruginosa; P. aeruginosa ARC2761 (Clinical isolate), surfactant 5%): >64 µg/mL; MIC (P. aeruginosa; P. aeruginosa ARC2761 (Clinical isolate), surfactant 10%): >64 µg/mL; MIC (P. aeruginosa; P. aeruginosa ARC3508 (derepressed AmpC), surfactant 0%): >64 µg/mL; MIC (P. aeruginosa; P. aeruginosa ARC3508 (derepressed AmpC), surfactant 1%): >64 µg/mL; MIC (P. aeruginosa; P. aeruginosa ARC3508 (derepressed AmpC), surfactant 2.5%): >64 µg/mL; MIC (P. aeruginosa; P. aeruginosa ARC3508 (derepressed AmpC), surfactant 5%): >64 µg/mL; MIC (P. aeruginosa; P. aeruginosa ARC3508 (derepressed AmpC), surfactant 10%): >64 µg/mL; MIC (P. aeruginosa; Pseudomonas aeruginosa, ATCC27853, P. aeruginosa ARC3 (CLSI QC strain, ATCC 27853), surfactant 0%, read-out: MIC): > 64 µg/mL; MIC (P. aeruginosa; Pseudomonas aeruginosa, P. aeruginosa ARC545 (PAO1), surfactant 0%, read-out: MIC): > 64 µg/mL; MIC (P. aeruginosa; Pseudomonas aeruginosa, P. aeruginosa ARC2761 (Clinical isolate), surfactant 0%, read-out: MIC): > 64 µg/mL
